According to patent US4192871A, “Chemical compounds” (Glaxo Laboratories Limited, priority 1976, dated 1980):
Where a name gives a salt, the structure may show the parent alone.

Key:
pH of the salt solutions = type: physicochemical
Method: (§1) A solution of the above free base (492 mg; 1 mmole) in ethanol (10 ml) was treated with a solution (10 ml) of M/10 citric acid in ethanol water (9:1) and the mixture evaporated in vacuo at low temperature to afford a froth.
(§2) Table 5 summarises the properties and preparation of salts of the invention by one of the following methods:
(§3) A. The 11β-aminoester (1 part) was added to a solution of the acid (1 molar part) in water and the mixture stirred or shaken until a clear solution was obtained. The solution was made up with water to the weight indicated, filtered through a membrane and the pH determined.
(§4) B. The 11β-aminoester (1 part) was added to a solution of the acid (1 molar part) in water and the mixture stirred or shaken. As free base remained undissolved, further acid was added and the mixture agitated again. The solution was made up with water to the weight indicated and any material which then remained undissolved was collected in a weighed funnel and the weight of free base dissolved calculated and the pH of the solution measured.
(§5) C. A mixture of the 11β-aminoester (1 part), a 0.1 M solution of the acid (1 molar part) and ethanol was evaporated in vacuo and dried to constant weight. The residue was dissolved in a little water and any material which then remained undissolved collected in a weighed funnel and the weight of free base dissolved calculated. The solution was made up with water to the weight indicated and its pH measured.
(§6) D. The 11β-aminoester (1 part) was added to a solution of the acid (1 molar part) in water and the mixture stirred or shaken. The solution was made up with water to the weight indicated. The material remaining undissolved was collected in a weighed funnel and the weight of free base dissolved calculated and the pH of the solution measured.
(§7) E. As in method C except that further acid was added to the residue after addition of the small amount of water.
11β-N,N-Diethylaminoacetoxy-2β-ethoxy-3α-hydroxy-5α-pregnan-20-one (1.45 g) was agitated with citric acid monohydrate (621 mg) in 0.9% w/v sodium chloride solution (steriflex^(R)) (130 ml.) at 20° for 16.5 hours. The resulting solution was stirred at 21° and N/5 sodium hydroxide solution in steriflex^(R) (10.5 ml) was added dropwise during 30 minutes, raising the pH from 3.63 to 4.52. The solution was diluted to 162.5 g so that the concentration of steroid was 9 mg/ml. The solution of the citrate was filtered through a membrane and finally filtered into 8 sterile ampoules.
11β-(N-Butyl-N-ethylaminoacetoxy)-3α-hydroxy-5α-pregnan-20-one (1.80 g) was agitated with citric acid monohydrate (793 mg) in 0.9% w/v sodium chloride solution (steriflex^(R)) (160 ml) at 20° for 19.5 hours. The resulting solution was slightly cloudy. This solution was stirred at 21° and N/5 sodium hydroxide solution in steriflex^(R) (5.8 ml) was added dropwise during 15 minutes, raising the pH from 3.62 to 4.00. The solution was diluted to 201.2 g so that the concentration of steroid was 9 mg/ml. The cloudiness was removed by filtration through a membrane and the clear solution of the citrate was filtered into 8 sterile ampoules.
Sodium iodide (0.250 g) and diethylamine (0.5 ml) were added to a solution of 11β-chloroacetoxy-2β-ethoxy-3α-hydroxy-D-homo-5α-pregnan-20-one (0.250 g) in acetone (10 ml) and the mixture was left at room temperature for 3 days during which time a white solid precipated. Water was added and the yellow solution was concentrated in vacuo whereupon crystallisation occurred. The needles were filtered off and washed well with acetone/water yielding the title compound (0.201 g), m.p. 160°-73°, [α]D +60.8°. The above base (0.101 g) was stirred with citric acid monohydrate (0.042 g) in water (9.5 ml) for 21 hours. The solution was made up to 10.1 g by weight. The solid remaining out of solution was filtered off, dried and weighed. The solution was passed through a millipore filter giving an aqueous solution of the title compound, concentration 9.75 mg/ml, pH 3.66. […]

[1] = dissolution of the 11β-aminoester salts in aqueous acid (Table 5 and Examples 101, 225-229); type: physicochemical; conditions: for concentration of aqueous solution of the citrate: citric acid monohydrate in water, filtered solution
Method: as §1, §2, §3, §4, §5, §6, §7
The solid citric acid used was as its monohydrate.
Sodium iodide (0.250 g) and diethylamine (0.5 ml) were added to a solution of 11β-chloroacetoxy-2β-ethoxy-3α-hydroxy-D-homo-5α-pregnan-20-one (0.250 g) in acetone (10 ml) and the mixture was left at room temperature for 3 days during which time a white solid precipated. Water was added and the yellow solution was concentrated in vacuo whereupon crystallisation occurred. The needles were filtered off and washed well with acetone/water yielding the title compound (0.201 g), m.p. 160°-73°, [α]D +60.8°. The above base (0.101 g) was stirred with citric acid monohydrate (0.042 g) in water (9.5 ml) for 21 hours. The solution was made up to 10.1 g by weight. The solid remaining out of solution was filtered off, dried and weighed. The solution was passed through a millipore filter giving an aqueous solution of the title compound, concentration 9.75 mg/ml, pH 3.66.
The above base (0.096 g) was stirred in a solution of citric acid monohydrate (0.038 g) in water (8.5 ml) for 20 hours. A large proportion of the steroid remained out of solution. More citric acid (0.038 g) was added and the mixture stirred for a further 6 hours. The solution was made up to 9.6 g by weight and the solid remaining out of solution was filtered off, dried and weighed. The solution was passed through a millipore filter giving an aqueous solution of the title compound, concentration 9.5 mg/ml, pH 2.85.
To a solution of citric acid monohydrate (52.5 mg) in water (2 ml) was added the above free base (115 mg). More water (8 ml) was added and the mixture was stirred for 72 hrs. A small amount of steroid remained out of solution and more citric acid (52.5 mg) was added. Within 5 mins. a clear solution was obtained which was made up to 11.5 g with water and filtered through a millipore filter yielding an aqueous solution of the title citrate, concentration 10 mg/ml, pH 3.0.
The above free base (112 mg) was added to a solution of citric acid monohydrate (52.5 mg) in water (2 ml). More water (8 ml) was added and the mixture was swirled from time to time. […]

[2] = aqueous solution of the salt, Table 5
[3] = method B: further acid added, undissolved material weighed, WT. of solution 10 g, except Ex. 130 and 141: 9.2, 142: 9.23, 143, 144, 189 and 199: 9.8, 149: 10.6, 153: 7.9, 162 and 188: 9.5, 163: 68, 166: 10.4, 168: 10.7, 169: 10.9, 183: 8.05, 184 and 201: 9.83, 185: 7.1, 186: 9.3, 192: 10.07, 193: 6.4, 195: 6.8, 196: 7, 197: 7.2, 200: 10.1, 206: 15 g
[4] = aqueous solution of the citrate, filtered, 9.5-10 mg/ml
[5] = method D: 1 molar part acid, undissolved material weighed, WT. of solution 10 g, except Ex. 136: 8.95, 140: 9.52, 165 and 167: 10.1, 190 and 198: 9.8, 191: 8.9, 194: 6.6, 204: 10.09, 219: 10.6 g
[6] = method A: clear solution, 1 molar part acid, made up with water to WT. of solution 10 g, except Ex. 121 and 150: 12, 123: 12.3, 124: 7.5, 129: 10.3, 135 and 139: 8.95, 164: 10.35, 170: 10.4, 181: 10.04, 187: 9.5, 210: 10.2, 221: 15 g

Molecule CCCCOC1CC2(C)C(CCC3C4CCC(C(C)=O)C4(C)CC(OC(=O)CN(C)CCCC)C32)CC1O (stereo not shown) [Example 168] has a pH (pH of the salt solutions; [2]) of 2.4 and a Dissolved aminoester [1, 3] of 70.5 mg.

CC(=O)[C@H]1CC[C@H]2[C@@H]3CC[C@H]4C[C@H](O)CC[C@]4(C)[C@H]3[C@@H](OC(=O)CN3CCCCCCC3)C[C@]12C [Example 128] showed a pH (pH of the salt solutions; [2]) of 2.65 and a Dissolved aminoester [1, 3] of 68 mg.

With CCOC1CC2(C)C(CCC3C4CCC(C(C)=O)C4(C)CC(OC(=O)CNC(C)CC(C)C)C32)CC1O (stereo not shown) [Example 166] the pH (pH of the salt solutions; [2]) was 3.28 and the Dissolved aminoester [1, 3] was 104 mg.

In the case of CCCN(CCC)CC(=O)O[C@H]1C[C@]2(C)[C@@H](C(C)=O)CCC[C@H]2[C@@H]2CC[C@H]3C[C@H](O)[C@@H](OCC)C[C@]3(C)[C@H]21 [Example 226 citrate salt], the pH (pH of the salt solutions; [4]) is reported as 2.85 and the “concentration of aqueous solution of the citrate” value [1] is reported as 9500 µg/mL.

With CCCO[C@H]1C[C@@]2(C)[C@@H](CC[C@@H]3[C@@H]2[C@@H](OC(=O)CN(CC)CC)C[C@]2(C)[C@@H](C(C)=O)CC[C@@H]32)C[C@@H]1O [Example 122] the pH (pH of the salt solutions; solution of the salt in saline, before any adjustment) was 3.5 and the Dissolved aminoester ([1]; method A, 0.9% w/v saline in place of water, WT. of solution Ex. 122: 37.5 g, 222: 50 g) was 375 mg.

With CC(=O)[C@H]1CC[C@H]2[C@@H]3CC[C@H]4C[C@H](O)CC[C@]4(C)[C@H]3[C@@H](OC(=O)CN(C)C(C)CC(C)C)C[C@]12C (stereo partly shown) [Example 190] the pH (pH of the salt solutions; [2]) was 3.43 and the Dissolved aminoester [1, 5] was 86 mg.

In the case of CCCN(CCC)CC(=O)O[C@H]1C[C@]2(C)[C@@H](C(C)=O)CC[C@H]2[C@@H]2CC[C@H]3C[C@H](O)CC[C@]3(C)[C@H]21 [Example 217], the pH (pH of the salt solutions; [2]) is reported as 3.53 and the Dissolved aminoester ([1]; method C: ethanol evaporated, residue in water, undissolved material weighed, WT. of solution Ex. 118: 10, 120: 10.4, 148: 9.54, 152: 5.6, 154: 9.1, 155: 8.77, 156: 9.06, 157: 9.5, 158: 9.38, 159: 9.17, 179: 9.65, 180: 11.7, 182: 4.9, 202: 12.05, 213: 12, 214: 11.5, 215: 11.1, 216: 11.6, 217: 12.1 g) is reported as 76 mg.

Molecule CCOC1CC2(C)C(CCC3C4CCC(C(C)=O)C4(C)CC(OC(=O)CNCCC(C)C)C32)CC1O (stereo not shown) [Example 165] has a pH (pH of the salt solutions; [2]) of 3.68 and a Dissolved aminoester [1, 5] of 76.5 mg.

Molecule CC(=O)[C@H]1CC[C@H]2[C@@H]3CC[C@H]4C[C@H](O)CC[C@]4(C)[C@H]3[C@@H](OC(=O)CN(C)CCc3ccccc3)C[C@]12C [Example 126] has a pH (pH of the salt solutions; [2]) of 2.65 and a Dissolved aminoester [1, 3] of 56 mg.

Work on CCC(C)CNCC(=O)O[C@H]1C[C@]2(C)[C@@H](C(C)=O)CC[C@H]2[C@@H]2CC[C@H]3C[C@H](O)CC[C@]3(C)[C@H]21 (stereo partly shown) [Example 129] yielded a pH (pH of the salt solutions; [2]) of 3.64 and a Dissolved aminoester [1, 6] of 92.3 mg.

For CCCCCN(C)CC(=O)O[C@H]1C[C@]2(C)[C@@H](C(C)=O)CC[C@H]2[C@@H]2CC[C@H]3C[C@H](O)CC[C@]3(C)[C@H]21 [Example 185], the pH (pH of the salt solutions; [2]) was 2.86 and the Dissolved aminoester [1, 3] was 65.3 mg.

CCCCN(C)CC(=O)O[C@H]1C[C@]2(C)[C@@H](C(C)=O)CC[C@H]2[C@@H]2CC[C@H]3C[C@H](O)[C@@H](Br)C[C@]3(C)[C@H]21 [Example 207] showed a pH (pH of the salt solutions; [2]) of 2.6 and a Dissolved aminoester [1, 3] of 59 mg.

Work on CCCC(C)NCC(=O)O[C@H]1C[C@]2(C)[C@@H](C(C)=O)CC[C@H]2[C@@H]2CC[C@H]3C[C@H](O)CC[C@]3(C)[C@H]21 (stereo partly shown) [Example 141] yielded a pH (pH of the salt solutions; [2]) of 2.89 and a Dissolved aminoester [1, 3] of 77.3 mg.

Molecule CCCCN(CC)CC(=O)O[C@H]1C[C@]2(C)[C@@H](C(C)=O)CC[C@H]2[C@@H]2CC[C@H]3C[C@H](O)[C@@H](OCC)C[C@]3(C)[C@H]21 [Example 150] has a pH (pH of the salt solutions; [2]) of 3.35 and a Dissolved aminoester [1, 6] of 120 mg.

In the case of CCO[C@H]1C[C@@]2(C)[C@@H](CC[C@@H]3[C@@H]2[C@@H](OC(=O)CN(CC)CC)C[C@]2(C)[C@@H](C(C)=O)CCC[C@@H]32)C[C@@H]1O [Example 225 citrate salt], the pH (pH of the salt solutions; [4]) is reported as 3.66 and the “concentration of aqueous solution of the citrate” value [1] is reported as 9750 µg/mL.

Molecule CCC(C)N(C)CC(=O)O[C@H]1C[C@]2(C)[C@@H](C(C)=O)CC[C@H]2[C@@H]2CC[C@H]3C[C@H](O)CC[C@]3(C)[C@H]21 (stereo partly shown) [Example 184] has a pH (pH of the salt solutions; [2]) of 3.0 and a Dissolved aminoester [1, 3] of 94.5 mg.

In the case of CCO[C@H]1C[C@@]2(C)[C@@H](CC[C@@H]3[C@@H]2[C@@H](OC(=O)CN(CC)CC)C[C@]2(C)[C@@H](C(C)=O)CC[C@@H]32)C[C@@H]1O.O=C(O)CC(O)(CC(=O)O)C(=O)O [Example 101 citrate salt, 11β-N,N-Diethylaminoacetoxy-2β-ethoxy-3α-hydroxy-5α-pregnan-20-one, citrate salt], the pH (pH of the salt solutions; solution in 0.9% w/v saline, pH adjusted with sodium hydroxide solution) is reported as 4.52, the pH (pH of the salt solutions; solution of the salt in saline, before any adjustment, citrate salt) is reported as 3.5 and the pH (pH of the salt solutions; solution of the salt in saline, before any adjustment, listed as Example 223, citrate salt) is reported as 3.63. For the same molecule, the dissolution in saline ([1]; citrate salt froth, in saline) was “dissolved readily in saline”.

Work on COC(=O)[C@H]1CC[C@H]2[C@@H]3CC[C@H]4C[C@H](O)CC[C@]4(C)[C@H]3[C@@H](OC(=O)CN3CCCCC3)C[C@]12C [Example 125] yielded a pH (pH of the salt solutions; [2]) of 2.82 and a Dissolved aminoester [1, 3] of 98 mg.

Molecule CCCCN(C)CC(=O)OC1CC2(C)C(CC(C)C2C(C)=O)C2CCC3CC(O)CCC3(C)C12 (stereo not shown) [Example 177] has a pH (pH of the salt solutions; aqueous solution, pH adjusted with sodium hydroxide solution) of 4.0 and a Dissolved aminoester [1, 6] of 100 mg.
